Source: ChEMBL document CHEMBL4418488, “Compounds and methods of treating ocular disorders” (2017)
The source made the active and inactive calls. The rule behind the calls is not given here.

Assays:
Mus musculus [1] = assay: Protective effect against intense light-induced retinal degeneration in 4 weeks old Abca4(-/-)/Rdh8 (-/-) mouse assessed as effect on thickness of outer nuclear layer at 1 mg dosed via gavage under dark for 24 hrs before exposure to 10000 lux bright light for 1 hr by SDOCT and ERG analysis; assay type: functional, organism-based
Mus musculus [2] = assay: Protective effect against intense light-induced retinal degeneration in 4 weeks old Abca4(-/-)/Rdh8 (-/-) mouse assessed as 11-cis retinal levels at 1 mg dosed via gavage under dark for 24 hrs before exposure to 10000 lux bright light for 1 hr by HPLC analysis; assay type: functional
[3] = Toxicity in 4 weeks old Abca4(-/-)/Rdh8 (-/-) mouse model of intense light-induced retinal degeneration at 1 mg dosed via gavage under dark for 24 hrs before exposure to 10000 lux bright light for 1 hr by SDOCT and ERG analysis; assay type: organism-based; conditions: in vivo, po
[4] = Drug metabolism in 4 weeks old Abca4(-/-)/Rdh8 (-/-) mouse model of intense light-induced retinal degeneration assessed as accumulation of intense amide peaks in liver at 1 mg dosed via gavage under dark for 24 hrs before exposure to 10000 lux bright light for 1 hr […]; assay type: ADME, organism-based; conditions: in vivo, po
Mus musculus [5] = assay: Protective effect against intense light-induced retinal degeneration in 4 weeks old Abca4(-/-)/Rdh8 (-/-) mouse assessed as inhibition of rate of visual chromophore recovery by measuring 11-cis- retinal level in eye at 0.1 mg dosed via gavage under dark for 24 hrs before exposure to 10000 lux bright light for 1 hr by HPLC analysis relative to control; assay type: functional
Mus musculus [6] = assay: Protective effect against intense light-induced retinal degeneration in wild type mouse assessed as rate of visual chromophore recovery by measuring 11-cis- retinal level in eye at 0.2 mg pretreated with compound followed by exposure to light illumination 7 days after compound dosing (reference value: 85 +/- 5%) by HPLC analysis; assay type: functional, organism-based
Mus musculus [7] = assay: Protective effect against intense light-induced retinal degeneration in 4 weeks old Abca4(-/-)/Rdh8 (-/-) mouse at 0.2 mg dosed via gavage under dark for 24 hrs before exposure to 10000 lux bright light for 1 hr followed by exposure to dark for 3 days by ERG analysis; assay type: functional, organism-based
Mus musculus [8] = assay: Protective effect against intense light-induced retinal degeneration in 4 weeks old Abca4(-/-)/Rdh8 (-/-) mouse at 0.1 mg dosed via gavage under dark for 24 hrs before exposure to 10000 lux bright light for 1 hr followed by exposure to dark for 3 days by ERG analysis; assay type: functional, organism-based
Mus musculus [9] = assay: Protective effect against intense light-induced retinal degeneration in 4 weeks old Abca4(-/-)/Rdh8 (-/-) mouse at 0.1 mg dosed via gavage under dark for 24 hrs before exposure to 10000 lux bright light for 1 hr followed by exposure to dark for 3 days by OCT analysis; assay type: functional, organism-based
Mus musculus [10] = assay: Protective effect against intense light-induced retinal degeneration in 4 weeks old Abca4(-/-)/Rdh8 (-/-) mouse at 0.5 mg dosed via gavage under dark for 24 hrs before exposure to 10000 lux bright light for 1 hr followed by exposure to dark for 3 days by ERG analysis; assay type: functional, organism-based

SMILES	Activity (Mus musculus [1])	Activity [3]	other results
CC(/C=C/C=C(/c1ccc2ccccc2c1)C(C)(C)C)=C\CN	Active	Toxic	Activity (Mus musculus [2]): 50%; Drug metabolism [4]: Metabolite_Detected
CC1=C(/C=C/C=C/C=C/C=C/CN)C(C)(C)CCC1	Active	Non-Toxic	
CC1=C(/C=C/C(C)=C/C=C/C(C)=C/CN)C(C)(C)CCC1	Active	Non-Toxic	inhibition (INH) (Mus musculus [5]): 40%; Activity (Mus musculus [6]): inactive; Activity (Mus musculus [7]): Active; Activity (Mus musculus [8]): inactive; Activity (Mus musculus [9]): inactive; Activity (Mus musculus [10]): Active
CC(/C=C/C=C(/C=C/c1ccc(C(F)(F)F)cc1)c1ccccc1)=C\CN	inactive	Toxic	
CC(C)(C)C(=C\C=C\CN)/C=C/C1=CCCCC1	inactive	Toxic	
COc1ccc(C(=C\C=C\C(C)=C\CN)/C=C/c2ccc(O)cc2)cc1	inactive	Non-Toxic	
CC(/C=C/C=C(/C=C/c1ccccc1)C(C)(C)C)=C\CN	Active	Toxic	Drug metabolism [4]: Metabolite_Detected
CC1=C(/C=C/C(=C/C=C/C(C)=C/CN)C(C)(C)C)CCCC1	inactive	Non-Toxic	
CC(/C=C/C=C(/C=C/C1=CCCCC1)C(C)(C)C)=C\CN	Active	Toxic	Activity (Mus musculus [2]): 50%; Drug metabolism [4]: Metabolite_Detected
CC(/C=C/C1=CCCCC1)=C\C=C\C(C)=C\CN	inactive	Non-Toxic	
COc1ccc(C(=C\C=C\C(C)=C\CN)/C=C/C2=CCCCC2)cc1	inactive	Non-Toxic	
CC1=C(/C=C/C(=C/C=C/C(C)=C/CN)C(C)(C)C)C(C)(C)CCC1	inactive	Non-Toxic	
